Reference: PMC9250534, “Synthesis and direct assay of large macrocycle diversities by combinatorial late-stage modification at picomole scale” (Nature Communications, 2022)

The compounds below were run against MDM2 (Homo sapiens, UniProt Q00987) (assay: MDM2 binding screen of Libraries 3 and 4: displacement of fluorescent probe F-M8 at 750 nM macrocycle). Details: 750 nM macrocycle; crude reaction; probe F-M8.
Description: The cyclic peptide scaffolds required for Libraries 3 and 4 were synthesized as described for those used in Library 2. Due to the presence of many N-methylated amino acids which are more difficult to couple, 200 mM HOAt was applied together with HATU. The scaffolds were diluted to 2 mM in DMSO, and 15 nL were transferred using acoustic dispensing, followed by 15 nL DMSO containing carboxylic acids (40 mM, 20 equiv.), HBTU (40 mM) and DABCO (40 mM). After 6 h reaction at room temperature, 370 nL of DMSO was added to each well, followed by 5 μL of 100 mM Tris-Cl pH 7.4 containing 0.01% v/v Tween20, for quenching overnight.

Sequence of MDM2 (Q00987 whole entry): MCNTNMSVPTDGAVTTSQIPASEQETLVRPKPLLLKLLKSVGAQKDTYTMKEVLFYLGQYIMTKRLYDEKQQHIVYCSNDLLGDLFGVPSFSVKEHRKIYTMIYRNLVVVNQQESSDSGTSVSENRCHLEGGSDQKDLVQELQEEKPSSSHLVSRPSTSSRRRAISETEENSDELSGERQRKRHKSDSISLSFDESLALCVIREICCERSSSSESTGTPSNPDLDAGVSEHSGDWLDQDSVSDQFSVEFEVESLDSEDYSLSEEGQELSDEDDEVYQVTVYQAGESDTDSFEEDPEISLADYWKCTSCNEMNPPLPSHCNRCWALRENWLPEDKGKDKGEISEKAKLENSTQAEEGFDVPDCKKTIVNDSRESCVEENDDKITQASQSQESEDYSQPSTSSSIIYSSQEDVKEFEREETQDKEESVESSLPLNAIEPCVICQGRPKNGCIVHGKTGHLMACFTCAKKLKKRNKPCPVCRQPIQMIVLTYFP

displacement of fluorescent probe from MDM2 | SMILES
68% | COc1ccc(/C=C/C(=O)NC[C@@H]2NC(=O)[C@H]3CCCN(C3)C(=O)CCSSCCNC(=O)[C@H](Cc3c[nH]c4ccccc34)NC2=O)cc1 [M9]

Same assay, conditions: Panel b, Library 3: 63 scaffolds combinatorially acylated with 15 carboxylic acids at 30 picomole scale; displacement of fluorescent peptide probe; macrocycle 750 nM

SMILES | fraction of fluorescent probe displaced
O=C(O)C1CC1c1ccccc1 (centres unmarked) [Acid 105] | -0.00844
O=C(O)/C=C/c1ccncc1 [Acid 106] | 0.00455
O=C(O)c1ccc2ccccc2c1 [Acid 107] | -0.002
O=C(O)/C=C/c1ccc(Cl)cc1 [Acid 108] | 0.015
O=C(O)/C=C/c1ccc(OCc2ccccc2)cc1 [Acid 110] | 0.035
O=C(O)c1cccc(Oc2ccccc2)c1 [Acid 111] | 0.015
CC(Oc1cccc(Cl)c1)C(=O)O (centres unmarked) [Acid 113] | -0.00533
O=C(O)CCS(=O)(=O)c1ccccc1 [Acid 114] | 0.035
O=C1CCSSCCNC(=O)[C@H](Cc2cccc3ccccc23)NC(=O)[C@@H](CNC(=O)c2ccc(Cl)s2)NC(=O)C2(CC2)CN1 [X-Amcp-D-Dap-1-NaI + Acid 14] | 0.008
O=C1CCSSCCNC(=O)[C@H](Cc2cccc3ccccc23)NC(=O)[C@@H](CNC(=O)c2ccc3ccccc3c2)NC(=O)C2(CC2)CN1 [X-Amcp-D-Dap-1-NaI + Acid 107] | -0.00844
O=C(/C=C/c1ccc(Cl)cc1)NC[C@H]1NC(=O)C2(CC2)CNC(=O)CCSSCCNC(=O)[C@H](Cc2cccc3ccccc23)NC1=O [X-Amcp-D-Dap-1-NaI + Acid 108] | 0.021
O=C(/C=C/c1ccc(OCc2ccccc2)cc1)NC[C@H]1NC(=O)C2(CC2)CNC(=O)CCSSCCNC(=O)[C@H](Cc2cccc3ccccc23)NC1=O [X-Amcp-D-Dap-1-NaI + Acid 110] | 0.028

Further lines, results first:

fraction of fluorescent probe displaced | SMILES
-0.019 | CC(Oc1cccc(Cl)c1)C(=O)NCCN1CC(=O)NC(Cc2c[nH]c3cc(Cl)ccc23)C(=O)NCCSSCCC(=O)NCC2(CC2)C1=O (mixture of isomers) [X-Amcp-N-Aeg-Cl-Trp + Acid 113]
0.015 | CC(Oc1cccc(Cl)c1)C(=O)NCCN1CC(=O)NC(Cc2cn(C)c3ccccc23)C(=O)NCCSSCCC(=O)NCC2(CC2)C1=O (mixture of isomers) [X-Amcp-N-Aeg-Me-Trp + Acid 113]
-0.012 | CC(Oc1cccc(Cl)c1)C(=O)NCC1NC(=O)C2CCCN(C2)C(=O)CCSSCCNC(=O)C(Cc2ccc3ccccc3c2)NC1=O (mixture of isomers) [X-Nip-D-Dap-2-Nal + Acid 113]
0.00133 | CC(Oc1cccc(Cl)c1)C(=O)NCC1NC(=O)C2CCCN(C2)C(=O)CCSSCCNC(=O)C(Cc2c[nH]c3ccccc23)N(C)C1=O (mixture of isomers) [X-Nip-D-Dap-NMe-Trp + Acid 113]
0.00133 | O=C1NC(CNC(=O)C2COc3ccccc3O2)C(=O)NC(Cc2c[nH]c3ccccc23)C(=O)NCCSSCCC(=O)N2CCCC1C2 (mixture of isomers) [X-Nip-D-Dap-Trp + Acid 115]
-0.00533 | CC(Oc1cccc(Cl)c1)C(=O)NCC1NC(=O)C2CCCN(C2)C(=O)CCSSCCNC(=O)C(Cc2c[nH]c3ccccc23)NC1=O (mixture of isomers) [X-Nip-Dap-Trp + Acid 113]
-0.00533 | CC(Oc1cccc(Cl)c1)C(=O)NCCN1CC(=O)NC(Cc2cccc3ccccc23)C(=O)NCCSSCCC(=O)N2CCCC(C2)C1=O (mixture of isomers) [X-Nip-N-Aeg-1-NaI + Acid 113]
0.008 | O=C1CCSSCCNC(=O)[C@H](Cc2cccc3ccccc23)NC(=O)[C@@H](CNC(=O)c2cccc(Oc3ccccc3)c2)NC(=O)C2(CC2)CN1 [X-Amcp-D-Dap-1-NaI + Acid 111]
-0.00533 | O=C(/C=C/c1ccc2ccccc2c1)NC[C@H]1NC(=O)C2(CC2)CNC(=O)CCSSCCNC(=O)[C@H](Cc2cccc3ccccc23)NC1=O [X-Amcp-D-Dap-1-NaI + Acid 112]
-0.00533 | CC(Oc1cccc(Cl)c1)C(=O)NC[C@H]1NC(=O)C2(CC2)CNC(=O)CCSSCCNC(=O)[C@H](Cc2cccc3ccccc23)NC1=O (stereo partly drawn) [X-Amcp-D-Dap-1-NaI + Acid 113]
0.028 | O=C(CCS(=O)(=O)c1ccccc1)NC[C@H]1NC(=O)C2(CC2)CNC(=O)CCSSCCNC(=O)[C@H](Cc2cccc3ccccc23)NC1=O [X-Amcp-D-Dap-1-NaI + Acid 114]
0.015 | O=C1CCSSCCNC(=O)[C@H](Cc2cccc3ccccc23)NC(=O)[C@@H](CNC(=O)C2COc3ccccc3O2)NC(=O)C2(CC2)CN1 (stereo partly drawn) [X-Amcp-D-Dap-1-NaI + Acid 115]
0.00133 | O=C1CCSSCCNC(=O)[C@H](Cc2ccc3ccccc3c2)NC(=O)[C@@H](CNC(=O)c2ccc(Cl)s2)NC(=O)C2(CC2)CN1 [X-Amcp-D-Dap-2-Nal + Acid 14]
-0.019 | O=C1CCSSCCNC(=O)[C@H](Cc2ccc3ccccc3c2)NC(=O)[C@@H](CNC(=O)c2ccc(Cl)cc2)NC(=O)C2(CC2)CN1 [X-Amcp-D-Dap-2-Nal + Acid 25]
-0.00844 | O=C1CCSSCCNC(=O)C(Cc2ccc3ccccc3c2)NC(=O)C(CNC(=O)C2CC2c2ccccc2)NC(=O)C2(CC2)CN1 [X-Amcp-D-Dap-2-Nal + Acid 105]
0.008 | O=C(/C=C/c1ccc(Cl)cc1)NC[C@H]1NC(=O)C2(CC2)CNC(=O)CCSSCCNC(=O)[C@H](Cc2ccc3ccccc3c2)NC1=O [X-Amcp-D-Dap-2-Nal + Acid 108]
0.028 | O=C(/C=C/c1ccc(OCc2ccccc2)cc1)NC[C@H]1NC(=O)C2(CC2)CNC(=O)CCSSCCNC(=O)[C@H](Cc2ccc3ccccc3c2)NC1=O [X-Amcp-D-Dap-2-Nal + Acid 110]
-0.00533 | O=C1CCSSCCNC(=O)[C@H](Cc2ccc3ccccc3c2)NC(=O)[C@@H](CNC(=O)c2cccc(Oc3ccccc3)c2)NC(=O)C2(CC2)CN1 [X-Amcp-D-Dap-2-Nal + Acid 111]
-0.00533 | O=C(CCS(=O)(=O)c1ccccc1)NC[C@H]1NC(=O)C2(CC2)CNC(=O)CCSSCCNC(=O)[C@H](Cc2ccc3ccccc3c2)NC1=O [X-Amcp-D-Dap-2-Nal + Acid 114]
0.015 | O=C1CCSSCCNC(=O)[C@H](Cc2ccc3ccccc3c2)NC(=O)[C@@H](CNC(=O)C2COc3ccccc3O2)NC(=O)C2(CC2)CN1 (stereo partly drawn) [X-Amcp-D-Dap-2-Nal + Acid 115]
0.008 | O=C1CCSSCCNC(=O)[C@H](Cc2c[nH]c3cc(Cl)ccc23)NC(=O)[C@@H](CNC(=O)c2ccc(Cl)s2)NC(=O)C2(CC2)CN1 [X-Amcp-D-Dap-Cl-Trp + Acid 14]
0.021 | O=C1CCSSCCNC(=O)[C@H](Cc2c[nH]c3cc(Cl)ccc23)NC(=O)[C@@H](CNC(=O)c2ccc(Cl)cc2)NC(=O)C2(CC2)CN1 [X-Amcp-D-Dap-Cl-Trp + Acid 25]
0.018 | O=C(/C=C/c1ccncc1)NC[C@H]1NC(=O)C2(CC2)CNC(=O)CCSSCCNC(=O)[C@H](Cc2c[nH]c3cc(Cl)ccc23)NC1=O [X-Amcp-D-Dap-Cl-Trp + Acid 106]
-0.025 | O=C(/C=C/c1ccc(Cl)cc1)NC[C@H]1NC(=O)C2(CC2)CNC(=O)CCSSCCNC(=O)[C@H](Cc2c[nH]c3cc(Cl)ccc23)NC1=O [X-Amcp-D-Dap-Cl-Trp + Acid 108]
0.008 | O=C(/C=C/c1ccc(OCc2ccccc2)cc1)NC[C@H]1NC(=O)C2(CC2)CNC(=O)CCSSCCNC(=O)[C@H](Cc2c[nH]c3cc(Cl)ccc23)NC1=O [X-Amcp-D-Dap-Cl-Trp + Acid 110]
-0.00533 | O=C(/C=C/c1ccc2ccccc2c1)NC[C@H]1NC(=O)C2(CC2)CNC(=O)CCSSCCNC(=O)[C@H](Cc2c[nH]c3cc(Cl)ccc23)NC1=O [X-Amcp-D-Dap-Cl-Trp + Acid 112]
-0.00533 | O=C(CCS(=O)(=O)c1ccccc1)NC[C@H]1NC(=O)C2(CC2)CNC(=O)CCSSCCNC(=O)[C@H](Cc2c[nH]c3cc(Cl)ccc23)NC1=O [X-Amcp-D-Dap-Cl-Trp + Acid 114]
0.008 | O=C1CCSSCCNC(=O)[C@@H](Cc2c[nH]c3ccccc23)NC(=O)[C@@H](CNC(=O)c2ccc(Cl)cc2)NC(=O)C2(CC2)CN1 [X-Amcp-D-Dap-D-Trp + Acid 25]
0.031 | O=C1CCSSCCNC(=O)[C@@H](Cc2c[nH]c3ccccc23)NC(=O)[C@@H](CNC(=O)c2ccc3ccccc3c2)NC(=O)C2(CC2)CN1 [X-Amcp-D-Dap-D-Trp + Acid 107]

Same assay, conditions: Panel c, Library 4: best nine scaffolds and 15 additional carboxylic acids; displacement of fluorescent probe

fraction of fluorescent probe displaced | SMILES
0.036 | O=C(O)/C=C/c1ccc(F)cc1 [Acid 116]
0.028 | CCOc1ccc(/C=C/C(=O)O)cc1 [Acid 117]
0.028 | CCCOc1ccc(/C=C/C(=O)O)cc1 [Acid 118]
0.012 | O=C(O)/C=C/c1ccc(Cl)c(Cl)c1 [Acid 119]
-0.00464 | O=C(O)/C=C/c1cccc(Cl)c1 [Acid 121]
-0.00464 | CC(=Cc1ccccc1)C(=O)O [Acid 123]
-0.021 | CC(C)c1ccc(/C=C/C(=O)O)cc1 [Acid 127]
0.0035 | O=C(O)c1cnc2ccccc2n1 [Acid 130]
